Reference: ChEMBL document CHEMBL3045794, “Antimicrobial activity of thiazolyl benzenesulfonamide-condensed 2,4-thiazolidinediones derivatives” (2013)
Values after ≈ are worked out from the molar mass of the structure shown.

Key:
Escherichia coli [1] = test: Antibacterial activity against Escherichia coli MTCC 739 assessed as growth inhibition after 24 hr by Kirby-Bauer disk diffusion method; type: functional; settings: MTCC 739, 24 h
Staphylococcus aureus [2] = test: Antibacterial activity against Staphylococcus aureus MTCC 96 assessed as growth inhibition after 24 hr by Kirby-Bauer disk diffusion method; type: functional; settings: MTCC 96, 24 h
Bacillus subtilis [3] = test: Antibacterial activity against Bacillus subtilis MTCC 619 assessed as diameter of growth inhibition zone after 24 hr by Kirby-Bauer disk diffusion method; type: functional
Pseudomonas aeruginosa [4] = test: Antibacterial activity against Pseudomonas aeruginosa MTCC 741 assessed as growth inhibition after 24 hr by Kirby-Bauer disk diffusion method; type: functional; settings: MTCC 741, 24 h
[5] = tested on: Mycobacterium tuberculosis; test: Antitubercular activity against Mycobacterium tuberculosis H37Rv MTCC 200 assessed as growth inhibition measured within 10 days by BACTEC MGIT method; type: functional; settings: H37Rv MTCC 200, 240 h
Staphylococcus aureus [6] = test: Antibacterial activity against Staphylococcus aureus MTCC 96 assessed as diameter of growth inhibition zone after 24 hr by Kirby-Bauer disk diffusion method; type: functional
Bacillus subtilis [7] = test: Antibacterial activity against Bacillus subtilis MTCC 619 assessed as growth inhibition after 24 hr by Kirby-Bauer disk diffusion method; type: functional; settings: MTCC 619, 24 h
Escherichia coli [8] = test: Antibacterial activity against Escherichia coli MTCC 739 assessed as diameter of growth inhibition zone after 24 hr by Kirby-Bauer disk diffusion method; type: functional
Pseudomonas aeruginosa [9] = test: Antibacterial activity against Pseudomonas aeruginosa MTCC 741 assessed as diameter of growth inhibition zone after 24 hr by Kirby-Bauer disk diffusion method; type: functional
Pseudomonas aeruginosa [10] = test: microbe, parasite or virus in culture; settings: MTCC 741, 24 h, read-out: DIZ
Description: Antibacterial activity against Pseudomonas aeruginosa MTCC 741 assessed as diameter of growth inhibition zone at 100 ug/disk after 24 hr by Kirby-Bauer disk diffusion method

Escherichia coli [11] = test: microbe, parasite or virus in culture; settings: MTCC 739, 24 h, read-out: DIZ
Description: Antibacterial activity against Escherichia coli MTCC 739 assessed as diameter of growth inhibition zone at 100 ug/disk after 24 hr by Kirby-Bauer disk diffusion method

Staphylococcus aureus [12] = test: Antibacterial activity against Staphylococcus aureus MTCC 96 assessed as diameter of growth inhibition zone at 100 ug/disk after 24 hr by Kirby-Bauer disk diffusion method; settings: MTCC 96, 24 h, read-out: DIZ
Bacillus subtilis [13] = test: microbe, parasite or virus in culture; settings: MTCC 619, 24 h, read-out: DIZ
Description: Antibacterial activity against Bacillus subtilis MTCC 619 assessed as diameter of growth inhibition zone at 100 ug/disk after 24 hr by Kirby-Bauer disk diffusion method

| SMILES | MIC (Escherichia coli [1]) [µg/mL] | MIC (Staphylococcus aureus [2]) [µg/mL] | diameter of the inhibition zone (DIZ) (Bacillus subtilis [3]) [mm] | MIC (Pseudomonas aeruginosa [4]) [µg/mL] | MIC99 [5] [µg/mL] | diameter of the inhibition zone (DIZ) (Staphylococcus aureus [6]) [mm] | MIC (Bacillus subtilis [7]) [µg/mL] | diameter of the inhibition zone (DIZ) (Escherichia coli [8]) [mm] | diameter of the inhibition zone (DIZ) (Pseudomonas aeruginosa [9]) [mm] | zone of inhibition at 100 µg/disc (Pseudomonas aeruginosa [10]) [mm] | zone of inhibition at 100 µg/disc (Escherichia coli [11]) [mm] | zone of inhibition at 100 µg/disc (Staphylococcus aureus [12]) [mm] | zone of inhibition at 100 µg/disc (Bacillus subtilis [13]) [mm] |
| --- | --- | --- | --- | --- | --- | --- | --- | --- | --- | --- | --- | --- | --- |
| Cc1cccc(C(=O)N2C(=O)S/C(=C\c3ccc(S(=O)(=O)Nc4nc(-c5ccccc5)cs4)cc3)C2=O)c1 | 100 (≈ 178 µM) | 100 (≈ 178 µM) | 18 | 100 (≈ 178 µM) | 125 (≈ 223 µM) | 18 | 100 (≈ 178 µM) | 18 | 19 |  |  |  |  |
| O=C1S/C(=C\c2ccc(S(=O)(=O)Nc3nc(-c4ccccc4)cs3)cc2)C(=O)N1C(=O)c1cccc(Cl)c1 | 25 (≈ 42.9 µM) | 12.5 (≈ 21.5 µM) | 25 | 25 (≈ 42.9 µM) | 62.5 (≈ 107 µM) | 26 | 12.5 (≈ 21.5 µM) | 24 | 24 |  |  |  |  |
| Cc1ccc(C(=O)N2C(=O)S/C(=C\c3ccc(S(=O)(=O)Nc4nc(-c5ccccc5)cs4)cc3)C2=O)cc1 | 50 (≈ 89 µM) | 50 (≈ 89 µM) | 23 | 50 (≈ 89 µM) | 250 (≈ 445 µM) | 22 | 50 (≈ 89 µM) | 22 | 22 |  |  |  |  |
| O=C1S/C(=C\c2ccc(S(=O)(=O)Nc3nc(-c4ccccc4)cs3)cc2)C(=O)N1C(=O)c1ccc([N+](=O)[O-])cc1[N+](=O)[O-] | 12.5 (≈ 19.6 µM) | 12.5 (≈ 19.6 µM) | 22 | 100 (≈ 157 µM) | 1000 (≈ 1570 µM) | 23 | 6.25 (≈ 9.8 µM) | 24 | 22 |  |  |  |  |
| O=C1S/C(=C\c2ccc(S(=O)(=O)Nc3nc(-c4ccccc4)cs3)cc2)C(=O)N1C(=O)c1ccccc1Cl | 12.5 (≈ 21.5 µM) | 6.25 (≈ 10.7 µM) | 26 | 12.5 (≈ 21.5 µM) | 62.5 (≈ 107 µM) | 24 | 6.25 (≈ 10.7 µM) | 25 | 24 |  |  |  |  |
| NNC(=O)c1ccncc1 [ISONIAZID] |  |  |  |  | 0.2 (≈ 1.46 µM) |  |  |  |  |  |  |  |  |
| O=C1S/C(=C\c2ccc(S(=O)(=O)Nc3nc(-c4ccccc4)cs3)cc2)C(=O)N1C(=O)c1ccc(Cl)cc1 | 25 (≈ 42.9 µM) | 6.25 (≈ 10.7 µM) | 26 | 12.5 (≈ 21.5 µM) | 62.5 (≈ 107 µM) | 24 | 6.25 (≈ 10.7 µM) | 23 | 22 |  |  |  |  |
| O=C1S/C(=C\c2ccc(S(=O)(=O)Nc3nc(-c4ccccc4)cs3)cc2)C(=O)N1C(=O)c1ccc([N+](=O)[O-])cc1 | 50 (≈ 84.4 µM) | 25 (≈ 42.2 µM) | 24 | 25 (≈ 42.2 µM) | 500 (≈ 844 µM) | 25 | 12.5 (≈ 21.1 µM) | 24 | 24 |  |  |  |  |
| O=C1S/C(=C\c2ccc(S(=O)(=O)Nc3nc(-c4ccccc4)cs3)cc2)C(=O)N1C(=O)c1cccc([N+](=O)[O-])c1 | 62.5 (≈ 105 µM) | 62.5 (≈ 105 µM) | 24 | 62.5 (≈ 105 µM) | 1000 (≈ 1690 µM) | 21 | 25 (≈ 42.2 µM) | 22 | 22 |  |  |  |  |
| O=C(O)c1cn(C2CC2)c2cc(N3CCNCC3)c(F)cc2c1=O [CIPROFLOXACIN] | ≤ 1 | ≤ 1 |  | ≤ 1 |  |  | ≤ 1 |  |  | 31 | 30 | 32 | 33 |
| O=C1S/C(=C\c2ccc(S(=O)(=O)Nc3nc(-c4ccccc4)cs3)cc2)C(=O)N1C(=O)c1ccccc1 | 62.5 (≈ 114 µM) | 62.5 (≈ 114 µM) | 24 | 62.5 (≈ 114 µM) | 125 (≈ 228 µM) | 21 | 25 (≈ 45.7 µM) | 22 | 22 |  |  |  |  |
